# Measured values reported in patent US6617158B1, “Method for stimulating the production of fetal hemoglobin producing erythroid cells” (New England Medical Center, priority 1999, dated 2003).
# What was measured:
# Format in all cases: cell-based, human
# [1] = test system: F+ cells (HbF-containing nucleated red cells) in cultures of mononuclear cells from adult blood; assay: Erythroid culture of adult blood mononuclear cells; proportions of F+ cells by two-color flow cytometry
# [2] = test system: Mononuclear cells from one sickle cell patient; assay: Sickle cell erythropoiesis culture; HbF vs HbS flow cytometry profiles; conditions: continuous culture in 30% FCS or 10 ng/ml TGF-beta, day 7
# Protocol: (§1) Cells are fixed with 5% formaldehyde in PBS at 37° C. for 1 h, exposed to 100% methanol for 5 min at room temperature, then permeabilized in Solution B of the Caltag Fix & Perm kit during incubation with phycoerythrin-conjugated antibodies to the gamma chain of hemoglobin (HbF) (Cortex) and fluorescein isothiocyanate-conjugated antibodies to the beta chain of hemoglobin (HbA) or to fluorescein isothiocyanate-conjugated antibodies specific for sickle cell hemoglobin (HbS) (Isolabs). After incubation, cells are washed and suspended in PBS with 1% formaldehyde and 0.1 μg/ml Hoechst 33342.
# Mononuclear cells from one sickle cell patient were continuously cultured in 30% FCS or 10 ng/ml TGF-beta. The cells were labeled with the same antibodies to HbF but with antibodies specific for HbS instead of HbA.
# [3] = test system: F+ and F-A+ cells in cultures of mononuclear cells from adult blood; assay: Absolute numbers of F+ and F-A+ cells per culture and long-term proliferation
# Protocol: FIG. 5A is an example of a time course from one experiment. Cultures were treated with TGF-beta for 4 days, then propagated without TGF-beta, with further subcultivation and dilution on days 7 (1:10), 10 (1:5) and 13 (1:5). Absolute numbers of F+ and F−A+ cells per culture were determined on days 7, 10, 13 and 16. Total cell numbers were calculated using preceding culture dilution factors in the following manner: at each time of analysis, some of the cells were removed for counting, those that go back into the culture after counting are seeded with a dilution of fresh medium, to avoid medium exhaustion. Therefore, the actual numbers in the plates increase only between seeding and harvest. To calculate cell production over the whole culture time, it is necessary to multiply the counted cell numbers in the plates with all previous culture dilution factors. Closed symbols depict data from F−A+ cells, open symbols show F+ cells, and triangles show TGF-beta-treated cultures, while circles show the controls.
# FIG. 5B is a graph indicating the TGF-beta-induced change of total F+ and F− cell numbers, shown as ratio of N(TGF)/N(CON). Cultures were treated with TGF-beta for 4 days., then propagated without TGF-beta, with further subcultivation and dilution on days 7 (1:10), 10 (1:5) and 13 (1:5). Absolute numbers of F+ and F−A+ cells per culture were determined on days 7, 10, 13 and 16. Individual experiments are distinguished by different symbols. […] Median values are indicated by horizontal bar.
# (§2) Cells are processed in a Becton-Dickinson Vantage flow cytometer/cell sorter with dual laser excitation (UV and 488 nm). Intact nucleated cells are selected by gating on UV-excited Hoechst […] fluorescence (430 nm) which yielded DNA histograms as well as cell cycle information by BudR-induced fluorescence quenching. Bohmer, Cell Tissue Kinet. 12: 101-110 (1979). Phycoerythrin (PE) and Fluorescein isothiocyanate (FITC) are excited at 488 nm and measured at 530 nm and 575 nm, […]. Correlated fluorescence values are recorded with appropriate color compensation. The accuracy of color compensation over 4 logs of fluorescence values is limited. To obtain absolute cell counts from the relative particle counts that a flow cytometer provides, known amounts of fluorescent plastic beads (Coulter Immunobrite Level IV) are added to the cell suspensions. Bohmer, Cell Tissue Kinet. 17: 593-600 (1984).
# Cultures that were treated with TGF-beta from day 0-4 were sub-cultivated again on days 7, 10 and 13, and the total numbers of F+ and F−A+ cells per culture were determined on days 7, 10, 13 and 16. […] Between day 7 and 10, both cell types in both cultures proliferated at approximately the same rate. After day 10, in control cultures, the proliferation decreased strongly and equally for both F+ and F−A+ cells, maintaining the ratio. No secondary colonies were seen following the subcultivation on day 13. In contrast, the proliferation in TGF-beta-treated cultures continued for much longer for both F+ and F−A+ cells. The F−A+ cell numbers were gradually reducing the gap with F+ cells, in agreement with the gradually decreasing proportions of F+ cells shown in FIG. 4. The number of days for which the proliferation of TGF-beta-treated cultures could be maintained was highly variable between donors and appeared to correlate with the initial numbers of clonogenic cells per ml of blood. […]
# [4] = test system: secondary erythroid colonies; assay: Secondary erythroid colony counts after re-seeding (cell cycle effect); conditions: first few days of treatment
# Protocol: Cell cultures were seeded in the presence (TGF) and absence (CON) of TGF-beta and on days 1, 2, 3 and 4 washed and re-seeded in the absence of TGF-beta. On day 9, the secondary colonies/clusters were counted and plotted as a function of the number of the day of treatment before reseeding. […] Statistics from 5 experiments are shown.
# To test the cell cycle effect of TGF-beta during the first 4 days of treatment, the numbers of secondary erythroid colonies that developed upon re-seeding the cultures after different duration of TGF-beta exposure were counted (FIG. 7). A decrease in the number of secondary colonies upon re-seeding would reflect a decrease in the number of divisions undergone by colony forming cells before the cultures were re-seeded as a single-cell suspension. However, the secondary colonies became smaller and more numerous, without much effect of TGF-beta. The numbers of secondary colonies began to increase between day 1 and 2, equally in TGF-beta and controls. Between days 3 and 4 the beginnings of inhibition by TGF-beta could be seen.
# [5] = test system: F+ cells (HbF-containing nucleated red cells) in cultures of mononuclear cells from adult blood; assay: Erythroid culture of adult blood mononuclear cells; proportions of F+ cells by two-color flow cytometry; remark: listed apart in the source
# Protocol: as §1, §2
# Blood samples were kept at room temperature and processed as soon as possible (between 2 h and 24 h) after collection. The blood was diluted 1:4 with phosphate buffered saline (PBS), the mononuclear cells isolated by density gradient (density 1.077), washed in PBS with 1% BSA (bovine serum albumin) and cultured without further processing in standard 6-well plates, 3-5 ml per well, at a maximum density of 0.3 million/ml. The standard medium (referred to as “control” medium) comprised a mixture of 2/3 Iscoves MDM and 1/3 RPMI1640, containing methylcellulose (0.9%), C—CHS (1%), EPO (1 U/ml), SCF (20 ng/ml), IL3 (10 ng/ml), insulin (3 μg/ml), iron-saturated transferring (70 μg/ml), mercaptoethanol ([…]). Cytokines were from R&D Systems, Minneapolis, Minn. or Genzyme, Cambridge, Mass.
# A relatively brief exposure to TGF-beta during the first few days of cell culture caused a lasting shift towards HbF expression with no reduction in subsequent clonal expansion (see data below). […]
# The effect of TGF-beta treatment on cell cultures was examined and compared to the effect of serum. […] On day 7, cultures containing hundreds of colonies were turned into single-cell suspensions and the correlated contents of HbA and HbF measured by flow cytometry (FIG. 1). […]
molecule,measurement,setting,value
TGF-beta 3: form of transforming growth factor beta titrated against TGF-beta 1,relative potency to increase proportions of F+ cells,"[1]; titration, treatment began day 2, re-seeded day 4, F+ on day 7",in between TGF-beta 1 and TGF-beta 2
TGF-beta: recombinant human transforming growth factor beta-1,relative F+ cell numbers,[2],increase in relative F+ cell numbers
same,N(TGF)/N(CON) of F+ cells,"[3]; 2 (out of 5) experiments, proliferating beyond 3 weeks",exceeding 100
same,total numbers of F-A+ cells versus control cultures,"[3]; between days 7 and 10, treatment day 0-4",dramatically reduced
same,reduction of F-A+ cell numbers,"[3]; day 7, treatment day 0-4",ca. 10 fold
same,"F+ cell numbers, ratio N(TGF)/N(CON)","[3]; day 7, treatment day 0-4, median",1
same,F+ population level versus controls,"[3]; on average, with increasing culture time, treatment day 0-4",ca. 10 fold
same,growth of newly developing secondary colonies,"[1]; added from day 7, after approximately 2 days of treatment, 8-16-cell stage",complete and lasting growth arrest
same,effect on F+ proportions when added at later culture phase,[1]; newly supplied beginning on day 7,no effect on F+ proportions
same,proportions of F+ cells after exposure for only one day,[1]; one day exposure between days 2 and 4,substantially increased
same,effect on cytokine-dependent proliferation (secondary colony numbers),[4],did not interfere with cytokine-dependent proliferation
same,effect on proportions of F+ cells,"[5]; 10 ng/ml, exposure day 0-4 or continuous, analysis day 7",increased the proportions of F+ cells dramatically
same,increased proportions of F+ cells during further culture growth,"[5]; 4-day treatment, then control medium, re-seeded days 7 and 10",maintained
same,"proportions of F+ cells, plateau","[5]; as function of exposure time (0-4 days), analysed day 7, 30% FCS or TGF-beta",80%
same,total cell counts,[5]; continuous treatment up to day 7 (not the 4-day treatment),strongly reduced total cell counts
"TGF-beta 2: form of transforming growth factor beta titrated against TGF-beta 1 (protein, UniProt P61812 303-414, looked up, Transforming growth factor beta-2) Transforming growth factor …: ALDAAYCFRNVQDNCCLRPLYIDFKRDLGWKWIHEPKGYNANFCAGACPYLWSSDTQHSRVLSLYNTINPEASASPCCVSQDLEPLTILYYIGKTPKIEQLSNMIVKSCKCS",relative effectiveness versus TGF-beta 1 to increase proportions of F+ cells,"[1]; titration, treatment began day 2, re-seeded day 4, F+ on day 7, average of two experiments",~100 times
